Measured values reported in US10947202B2, “Sodium ion channel inhibitors and pharmaceutically acceptable salts and polymorphs thereof and uses thereof” (SHANGHAI HAIYAN PHARMACEUTICAL TECHNOLOGY CO., LTD., priority 2017, dated 2021).
One block for each compound: values may come before it.

Tests used:
hNav1.7 = hNav1.7 (Homo sapiens, UniProt Q15858); assay: Manual patch clamp experiment of hNav1.7 channel (CHO-hNav1.7 stable cell line); type: cell-based; details: for inhibition at 0.1 µM: read-out: Inhibition of Nav1.7, 100 nM(%); for inhibition at 1 µM: read-out: Inhibition of Nav1.7, 1000 nM(%)
Text: Patch voltage clamp electrophysiology allows for the direct measurement and quantification of current block of voltage-gated sodium channels (NaV's), and allows the determination of the time and voltage-dependence of block which has been interpreted as differential binding to the resting, open and inactivated states of the sodium channel to reflect the compound's inhibitory or activating effects (Hille, B., Journal of General Physiology (1977), 69: 497-515).
Representative compounds of the present disclosure were performed using a manual patch clamp experiment and the purpose of this study was to test the effect of compounds on this ion channel current on a stable cell line transfected with a specific ion channel using a manual patch clamp method, the used stable cell lines CHO-hNav1.7 and HEK-hNav1.5 were from Genionics and WuXi Apptec (Shanghai) respectively.
Manual patch clamp experimental program is as follows:
(1) Preparation of solutions and compounds: The whole cell patch clamp technique was used to record hNav1.7 and hNav1.5 currents. In the experiment, the composition of extracellular fluid (mM): HEPES: 5, NaCl: 40, KCl: CaCl2:1, MgCl2:1, CdCl2:0.1, TEA-Cl: 20. The pH was adjusted to 7.3 with NaOH and the osmotic pressure was adjusted to 310-320 mOsm with sucrose, filtered and stored at 4° C. The composition of the intracellular fluid (mM): HEPES: 10, NaCl: 10, CsOH: 5, CsF: 140, EGTA: 1. The pH was adjusted to 7.3 with CsOH and the osmotic pressure was adjusted to 280-290 mOsm with sucrose, filtered and stored at −20° C.
The positive control and the test compound were firstly dissolved in 100% DMSO (Sigma-Aldrich, D2650), configured as stock solution at a concentration (100 nM, 1000 nM).) The above stock solution was serially diluted with DMSO prior to the experiment, the solution was further diluted with extracellular solution to obtain the desired concentration of the test solution.
(2) Manual Patch Clamp Experiment: The cell suspension was added to a 35 mm petri dish and placed on an inverted microscope stage, the cells were perfused with an extracellular fluid and the flow rate was 1-2 mL/min after cell adherence. The glass microelectrode was pulled in two steps by a microelectrode puller with an inlet water resistance of 2-5 MΩ. A/D-D/A digital-analog conversion was performed by Digidata 1440 (Molecular Devices) and pCLAMP software (version 10.2, Molecular Devices) for stimulation and signal acquisition; the signal was amplified by patch clamp amplifier (Multiclamp 700B, Molecular Devices), filtering is 4 KHz.
Two different voltage stimulation procedures were used in the hNav1.7 and hNav1.5 manual patch clamp experiments.
One is the inactivation stimulation program, the clamp potential is set at V1/2 of the corresponding channel, ie about 50% of the channels are inactivated, then the voltage is applied to −120 mV for 50 ms, then depolarized to −10 mV for 20 ms leading to sodium current, and finally back to the clamp potential. This stimulation program can also be called channel state-dependent voltage stimulation program.
The other is the non-inactivation stimulation program, the clamp potential is maintained at −120 mV, voltage stimulation is given to −10 mV for 20 ms leading to sodium current, and finally back to the clamp potential. That is all channels have not experienced inactivation status, but activate directly from the resting state under the conditions of the stimulation program.
The time intervals of these two voltage stimulation program were 10 s. The inhibitory effect of the compound was calculated by the change of the current before and after dosing, the IC50 value was fitted by the Hill equation. […] The results are shown in Table 33 and Table 34, respectively.

[1] = Metabolism stability test in liver microsomes; type: in vitro ADME; details: human liver microsomes
Protocol: Buffer A: 1 L solution of 100 mM potassium dihydrogen phosphate containing 1 mM EDTA (Sigma, V900157-100G) was prepared.
Buffer B: 1 L solution of 100 mM dipotassium hydrogen phosphate containing 1 mM EDTA was prepared.
Buffer C: 700 mL of buffer B was taken out and titrated with buffer A to pH 7.4.
2.1 10 μl of 10 mM compound to be tested and 10 μl of 10 mM ketanserin were taken out and 190 μl of pure acetonitrile was added to each of them to prepare 500 μM compound to be tested and ketanserin, respectively.
2.2 20 μl (20 mg/mL) of liver microsomes (Corning Lot. NO. 4133007) stock solution was added to 513.4 μl of buffer C on wet ice. 0.75 mg/mL liver microsomal solution was obtained.
2.3 1.5 μl of each of the above-mentioned compound to be tested and ketanserin solution was added to 498.5 μl of liver microsomal solution (0.7 5 mg/mL) respectively on wet ice. 1.5 μM mixed solution of compound to be tested and 1.5 μM mixed solution of ketanserin were obtained.
2.4 At the time points 0, 5, 15, 30, 45, and 60 min, 30 μl of the mixed solution of compound to be tested and 30 μl of the mixed solution of ketanserin were dispensed into the reaction plate on wet ice, respectively.
2.5 5 mg reduced coenzyme II (Roche, 10621706001) was weighed and dissolved in 1 mL of buffer C. 6 mM reduced coenzyme II solution was obtained. The reduced coenzyme II solution was dispensed into the reaction plate.
2.6 Imipramine was dissolved to give a 10 mM solution. 10 μl imipramine solution was added to 100 mL of blank acetonitrile to generate the internal reference.
2.7 At 0 min, 135 μL of iced acetonitrile (Merck (Lot. 1778229518)) containing the internal reference was added to each well and then 15 μL of buffer C was added.
2.8 The reaction plate was placed into a 37° C. water bath incubator for 5 min. In the reaction plate, 15 μL of reduced coenzyme II solution was added to each well to initiate the reaction, and the time keeping was started. At the time points of 5, 15, 30, 45, and 60 min, 135 μL of iced acetonitrile containing the internal reference was added to each well to terminate the reaction.
2.9 The reaction plate was sealed with an aluminum film, placed on a vibration mixer and shaken at 500 rpm for 5 min. The plate was then centrifuged in a centrifuge at 3750 rp for 15 min.
2.10 The sample was diluted with pure water in accordance with the ratio of 1:1 and detected by LC/MS. […]
Wherein, the K value and the proportional factor were calculated by those skilled in the art according to the methods described in the prior art and contained in the instructions of the liver microsome product.

[2] = Crystal form stability on shaking in solvent or heating (XRPD); type: physicochemical; details: heated to 150° C.
Protocol: The reaction solution in the step 4 of Example 1 was poured into water, extracted with ethyl acetate, dried and concentrated, ethanol was added to dissolve and the solution was evaporated, 1N hydrochloric acid and ethyl acetate were added and stirred for 1-2 h, filtered, a solid product which was the crystal form III of free base was obtained, the X-ray powder diffraction pattern is shown in FIG. 11A (the 2θ angle has been marked), the DSC/TGA/DVS patterns are shown in FIGS. 11B, 11C and 11D. According to the DSC pattern, there is an inflection point around 100° C., and the sample has a melting absorption peak at 181.9° C. […] The sample was shaken in ACE and MeOH at 50° C. for 1 day, and the crystal form was unchanged.
The reaction solution in the step 4 of Example 1 was poured into water, extracted with ethyl acetate, dried and concentrated to retain a small amount of ethyl acetate, 1N hydrochloric acid was added and stirred for 1 h, filtered, the filter cake was washed with ethanol and then filtered to obtain a solid product which was the crystal form IV of free base was obtained. The X-ray powder diffraction pattern is shown in FIG. 12A (the […] has been marked), the DSC/TGA/DVS patterns are shown in FIGS. 12B, 12C and 12D. […] The sample was shaken in ACE at 50° C. for 1 day, and the crystal form was unchanged. […]

[3] = Hygroscopicity experiment (DVS); type: physicochemical
Text: The Dynamic Vapor Sorption (DVS) curve was acquired on the DVS Intrinsic of Surface Measurement Systems.
The DVS results for crystal forms A, D, E-3 and F are shown in FIG. 1E, FIG. 4F, FIG. 7E and FIG. 8E, respectively.

hNav1.7, sequence (Q15858 whole entry): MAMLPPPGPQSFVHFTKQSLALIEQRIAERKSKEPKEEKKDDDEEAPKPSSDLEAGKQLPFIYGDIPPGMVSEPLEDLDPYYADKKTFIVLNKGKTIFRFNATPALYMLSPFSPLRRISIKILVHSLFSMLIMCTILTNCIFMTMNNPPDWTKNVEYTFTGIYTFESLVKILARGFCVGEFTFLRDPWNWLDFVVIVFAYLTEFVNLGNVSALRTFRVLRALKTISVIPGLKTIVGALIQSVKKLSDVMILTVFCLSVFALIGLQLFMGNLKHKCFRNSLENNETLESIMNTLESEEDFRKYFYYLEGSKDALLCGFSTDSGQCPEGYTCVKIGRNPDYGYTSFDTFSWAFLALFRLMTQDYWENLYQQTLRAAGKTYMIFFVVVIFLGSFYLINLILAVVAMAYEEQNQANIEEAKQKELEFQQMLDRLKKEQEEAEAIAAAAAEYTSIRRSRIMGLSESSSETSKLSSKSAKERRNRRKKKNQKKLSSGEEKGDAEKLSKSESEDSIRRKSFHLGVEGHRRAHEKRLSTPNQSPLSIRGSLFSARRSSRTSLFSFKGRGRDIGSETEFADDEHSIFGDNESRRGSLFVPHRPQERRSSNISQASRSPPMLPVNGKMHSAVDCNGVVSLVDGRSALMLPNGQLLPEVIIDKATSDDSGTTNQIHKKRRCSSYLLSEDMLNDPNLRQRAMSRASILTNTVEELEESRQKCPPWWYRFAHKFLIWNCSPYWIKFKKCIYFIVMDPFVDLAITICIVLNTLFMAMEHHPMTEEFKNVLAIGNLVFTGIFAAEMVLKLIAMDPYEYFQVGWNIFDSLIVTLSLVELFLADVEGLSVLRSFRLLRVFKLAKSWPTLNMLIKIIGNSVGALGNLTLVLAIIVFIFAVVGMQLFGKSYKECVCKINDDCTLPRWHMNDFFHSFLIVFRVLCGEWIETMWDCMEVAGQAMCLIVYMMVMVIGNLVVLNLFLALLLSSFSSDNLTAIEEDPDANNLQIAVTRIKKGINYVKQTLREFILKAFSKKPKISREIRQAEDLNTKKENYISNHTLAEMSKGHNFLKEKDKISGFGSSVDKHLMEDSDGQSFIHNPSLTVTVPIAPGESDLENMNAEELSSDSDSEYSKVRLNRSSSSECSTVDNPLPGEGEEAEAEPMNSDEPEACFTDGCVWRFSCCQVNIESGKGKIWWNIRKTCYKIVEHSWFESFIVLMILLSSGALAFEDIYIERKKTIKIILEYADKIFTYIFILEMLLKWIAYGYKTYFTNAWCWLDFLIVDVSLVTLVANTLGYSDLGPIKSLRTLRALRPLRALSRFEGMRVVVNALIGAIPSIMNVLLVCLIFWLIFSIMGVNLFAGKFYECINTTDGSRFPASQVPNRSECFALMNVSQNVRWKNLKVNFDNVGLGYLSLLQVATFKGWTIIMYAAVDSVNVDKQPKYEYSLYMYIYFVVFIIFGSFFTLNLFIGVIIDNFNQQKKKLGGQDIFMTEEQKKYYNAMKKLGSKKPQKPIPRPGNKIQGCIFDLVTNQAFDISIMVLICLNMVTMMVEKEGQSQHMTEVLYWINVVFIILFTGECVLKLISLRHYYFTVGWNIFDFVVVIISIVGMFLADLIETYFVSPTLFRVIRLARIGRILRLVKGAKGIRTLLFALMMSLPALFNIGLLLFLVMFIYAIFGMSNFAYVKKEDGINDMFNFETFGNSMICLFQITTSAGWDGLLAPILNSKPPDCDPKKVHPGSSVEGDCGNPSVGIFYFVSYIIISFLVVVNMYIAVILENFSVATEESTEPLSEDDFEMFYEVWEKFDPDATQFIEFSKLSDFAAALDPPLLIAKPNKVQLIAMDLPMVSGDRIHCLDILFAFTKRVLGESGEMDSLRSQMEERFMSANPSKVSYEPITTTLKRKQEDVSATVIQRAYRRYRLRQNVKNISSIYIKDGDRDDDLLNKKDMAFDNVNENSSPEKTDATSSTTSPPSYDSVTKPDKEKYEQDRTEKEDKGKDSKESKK

inhibition at 0.1 µM (hNav1.7): 49.2% | inhibition at 1 µM (hNav1.7): 64.8%
SMILES: O=C(NS(=O)(=O)C1CC1)c1cc(C2CC2)c(CN2CCN(Cc3cc(Cl)cc(Cl)c3)CC2)cc1F [C1]

inhibition at 0.1 µM (hNav1.7): 52% | inhibition at 1 µM (hNav1.7): 64%
SMILES: CS(=O)(=O)NC(=O)c1cc(C2CC2)c(CN2CCN(Cc3ccc(Cl)c(Cl)c3)CC2)cc1F [C2]

inhibition at 1 µM (hNav1.7): 67.2%
SMILES: O=C(NS(=O)(=O)C1CC1)c1cc(Cl)c(CN2CCN(Cc3ccc(Cl)cc3)CC2)cc1F [C6]

Further lines, the compound ahead of its results:

SMILES: CS(=O)(=O)NC(=O)c1cc(Cl)c(CN2CCN(c3ccc(C4CC4)c(Cl)c3)CC2)cc1F [C12, reference compound]
Clearance ratio [1]: 78.28 mL/min/kg

SMILES: Cc1cc(N2CCN(Cc3cc(F)c(C(=O)NS(C)(=O)=O)cc3Cl)CC2)ccc1Cl [C13, reference compound]
Clearance ratio [1]: 138.91 mL/min/kg

SMILES: Cc1cc(N2CCN(Cc3cc(F)c(C(=O)NS(=O)(=O)C4CC4)cc3Cl)CC2)ccc1Cl [crystal form VI, 5-chloro-4-((4-(4-chloro-3-methylphenyl)piperazin-1-yl)methyl)-N-(cyclopropylsulfonyl)-2-fluorobenzamide]
crystal form after heating [2]: converted into crystal form I | hygroscopicity (DVS curve) [3]: slightly hygroscopic

SMILES: Cc1cc(N2CCN(Cc3cc(F)c(C(=O)NS(=O)(=O)C4CC4)cc3Cl)CC2)ccc1Cl [crystal form VII, 5-chloro-4-((4-(4-chloro-3-methylphenyl)piperazin-1-yl)methyl)-N-(cyclopropylsulfonyl)-2-fluorobenzamide]
crystal form after heating [2]: converted into crystal form I | hygroscopicity (DVS curve) [3]: slightly hygroscopic
